“Also recorded” adds a separate entry of the source.
Key:
[1] = tested on: Drosophila HD model; test: Early dosing of carbenoxolone in Drosophila HD model (lifespan, motor control); format: in vivo
[2] = tested on: HD model strain mice; test: Morris water maze assay in HD model strain mice; format: in vivo, mouse; details: treated from 4 weeks, tested at 8 weeks of age, vs untreated HD mice
Excerpt: Mouse strains: Mouse strain names provided herein adhere to the Guidelines for Nomenclature of Mouse and Rat Strains, Revised October 2011, International Committee on Standardized Genetic Nomenclature for Mice, accessible at www.informatics.jax.org/mgihome/nomen/strains.shtml. Official gene symbols, or, where appropriate, official mouse strain names of the Jackson Laboratory (www.jax.org, e.g., the Jackson Laboratory Mice Database at jaxmice.jax.org) are used. There are numerous HD mouse strains suitable for candidate compound or nucleic acid construct screening, and for pre-clinical evaluations of candidates for the treatment of HD such as the HD model strains R6/2, R6/1, N171-82Q, CAG140, HdhQ111, BACHD, and CAG150 (Crook Z R, Housman D (2011) Huntington's disease: can mice lead the way to treatment? Neuron. 69:423-35; the entire contents of which are incorporated herein by reference). The HD model strains differ in their manifestations and time line of HD-like symptoms, e.g., motor and cognitive dysfunctions. […]
Morris water maze assay: The water maze assay measures spatial learning in mice. […] The sixth day has a single-trial probe test without the platform, and the time spent in each quadrant is recorded. […] The navigation of the mice is tracked by video camera, and the escape latency to the platform is recorded. […]

[3] = tested on: subject having or suspected of having the polyQ tract expansion disease HD; test: Oral carbenoxolone in subjects having or suspected of having HD; format: in vivo, human; details: about 100-700 mg/day
Method: The carbenoxolone is administered orally in tablet form, for example, as carbenoxolone disodium salt. The dosage is within the range of about 100-700 mg/day, for example at about 150 mg/day, about 300 mg/day, or about 600 mg/day. […] Such monitoring includes measuring cognitive and motor function in the subject, and/or determining whether a slowing or reversal of a personality change commonly associated with HD is observable. In some instances, the monitoring includes measuring the aggregation of Htt protein, the number or size of inclusion bodies, and/or brain tissue homeostasis (e.g. detection of improved survival of neuronal cells and/or reduction in astrocytes). […] After a period of time sufficient for a desired change, e.g. an amelioration in an HD symptom, to manifest, the subject is then monitored for such a change. For example, the subject, in some embodiments, is monitored for cognitive function, for example, within a time frame of about a week to about 6 months (e.g., about one month or about two months) after administration is commenced. […] For example, in some embodiments, the dose may be increased from about 150 mg/day to about 300 mg/day. In some embodiments, the subject is monitored again for symptoms after dose adjustment and, if the symptoms persist at the same severity level, the dose is increased further. […]

SMILES: CC1(C)[C@@H](OC(=O)CCC(=O)O)CC[C@]2(C)[C@H]3C(=O)C=C4[C@@H]5C[C@@](C)(C(=O)O)CC[C@]5(C)CC[C@@]4(C)[C@]3(C)CC[C@@H]12 [Carbenoxolone]
- Motor control / chorea (defective motor coordination) ([1]; Drosophila HD model): improves motor control; also recorded: improves chorea
- Drosophila HD model lifespan ([1]; early dosing): extends Drosophila HD model lifespan
- Impairment of cognitive capabilities (latency to escape, water maze) [2]: lesser degree of impairment
- HD symptoms (cognition, motor function, personality change) [3]: improvement of at least some HD symptoms
